Laboratory results as given in patent US5563125A, “5'-deoxy-5'-(substituted)alkylthioribose compounds and their pharmaceutical compositions” (priority 1992, dated 1996).

How the values were obtained:
[1] = test system: T. b. brucei procyclic trypanosomes (Lab 110 EATRO strain); assay: In vitro antitrypanosomal activity, procyclic trypanosomes in T2 medium; format: cell-based, Trypanosoma brucei brucei; settings: Trypanosoma brucei, 3-5 days
Method: The antitrypanosomal effects of HETA and other nucleosides were examined in the Lab 110 EATRO strain of T. b. brucei in culture.
Cells were cultured as described in Bacchi et al. Exp. Parasitol. 68, 392, 1989. Cells were then grown in the presence of the compounds for 3-5 days. Drugs were filtered, sterilized and added aseptically. Control cells achieved a maximum density of 1.5-3.5×10^7 /ml. Hemocytometer counts were made daily and the results were expressed as a percent of control growth. IC50 plots were obtained by graphing log (drug) vs. percent growth inhibition.
Trypanocidal Activity of MTA and MTR Analogs
against T. b. brucei procyclic trypanosomes in T2 medium.

[2] = target: T1, T. b. brucei MTA phosphorylase (Trypanosoma brucei, UniProt Q57XS4); assay: T. b. brucei MTA phosphorylase substrate assay; format: biochemical; settings: relative to MTA
T1 construct: MTA or analogs as substrates
T1 sequence (Q57XS4 entry or part of it): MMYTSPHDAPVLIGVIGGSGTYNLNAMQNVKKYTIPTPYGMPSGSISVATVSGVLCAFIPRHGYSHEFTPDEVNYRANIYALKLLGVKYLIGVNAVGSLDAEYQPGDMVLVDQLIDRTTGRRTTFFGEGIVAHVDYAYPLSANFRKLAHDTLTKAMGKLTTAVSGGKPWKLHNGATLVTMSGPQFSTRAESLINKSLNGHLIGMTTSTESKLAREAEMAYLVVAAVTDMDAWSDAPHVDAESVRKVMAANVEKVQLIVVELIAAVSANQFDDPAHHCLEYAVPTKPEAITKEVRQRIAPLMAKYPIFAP
Method: ^a MTA phosphorylase was assayed according to Ghoda et al., using 200
μM MTA (saturating) or analogs as substrates. Specific activities of
the dialyzed enzyme preparations were with 50 mM PO4, 104.97 n
moles/mg protein/h; without PO4, 28.27 n moles/mg protein/h. Results
are expressed as percent activity compared to as substrate with and
without PO4, respectively.

[3] = test system: CCRF-CEM cells (MTA phosphorylase-deficient); assay: Growth inhibition of CCRF-CEM cells; format: cell-based, human; settings: Homo sapiens, 96 h
Method: (§1) L1210, L5178Y and MOLT-4 cell lines were grown in RPMI 1640 and 10% Nu Serum (Collaborative Research Inc., Lexington, Mass.) and CCRF-CEM cells were grown in 10% Horse Serum (Gibco Laboratories, Grand Island, N.Y.) and maintained as previously described for suspension cultures by Pera et al. in Cancer Res. 46, 1148, 1986. Cell cultures (0.3×10^5 cells/ml) were treated with each compound at 0.1 to 1000 μM to determine the concentration that inhibited growth by 50% (IC50) at 48 hr for the L1210 and L5178Y cells and at 96 hr for the CCRF-CEM and MOLT-4 cells. The incubation times allowed approximately 4 cell doublings in each cell line. All compounds were freshly prepared prior to treatment by dissolving in DMSO and diluting in serum-free media. Cells were counted by electron particle counting (Model XF' Coulter Counter; Coulter Electronics, Hialeah, Fla.).
(§2) For each compound, the concentrations required to inhibit cell growth by 50% (IC50 values) are shown in Table 7 for two murine leukemic cell lines, L1210 and L5178Y [MTA phosphorylase-deficient and MTA phosphorylase-containing, respectively] and two human leukemic cell lines, CCRF-CEM and MOLT-4 [MTA phosphorylase-deficient and MTA phosphorylase-containing, respectively]. ETA, MFETA, HETA and PTA had lower IC50 values in the L5178Y cells than in the L1210 cells. […] This differential is consistent with the possibility that, in L5178Y cells, MFETA is cleaved by MTA phosphorylase to the growth inhibitory metabolite, 5-monofluoroethylthioribose-1-phosphate (MFETR-1-P).

[4] = test system: L1210 cells (MTA phosphorylase-deficient); assay: Growth inhibition of L1210 cells; format: cell-based, mouse; settings: Mus musculus, L1210, 48 h
Method: as §1, §2

[5] = target: T2, Mouse Liver MTA Phosphorylase (Mus musculus, UniProt Q9CQ65); assay: Mouse liver MTA phosphorylase substrate/inhibitor assay; format: biochemical; settings: substrate activity relative to MTA
T2 sequence (Q9CQ65 1-283): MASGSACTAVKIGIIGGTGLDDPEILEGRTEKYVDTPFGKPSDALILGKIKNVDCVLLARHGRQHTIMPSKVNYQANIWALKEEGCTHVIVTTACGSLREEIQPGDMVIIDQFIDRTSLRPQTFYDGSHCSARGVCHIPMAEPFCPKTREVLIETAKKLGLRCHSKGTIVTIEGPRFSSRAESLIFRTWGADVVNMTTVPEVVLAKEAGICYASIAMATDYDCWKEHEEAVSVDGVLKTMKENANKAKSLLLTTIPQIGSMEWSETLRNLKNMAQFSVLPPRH
Method: ^a MTA phosphorylase activity was assayed as described in Sufrin et

[6] = test system: L5178Y cells (MTA phosphorylase-containing); assay: Growth inhibition of L5178Y cells; format: cell-based, mouse; settings: Mus musculus, 48 h
Method: as §1, §2

[7] = test system: MOLT-4 cells (MTA phosphorylase-containing); assay: Growth inhibition of MOLT-4 cells; format: cell-based, human; settings: Homo sapiens, MOLT-4, 96 h
Method: as §1, §2

[8] = test system: T. b. brucei LAB 110 EATRO; assay: In vivo antitrypanosomal activity, LAB EATRO mouse infection model; settings: 7 days, miniosmotic pump
Method: ^a Animals were treated with surgically implanted miniosmotic pumps
loaded as per manufacturers instructions with MTA, HETA or MFETA suspende

Row | Structure (SMILES) | IC50 [1] | Percent Control Activity ([2]; +50 mM PO4, 200 μM substrate) | Percent Control Activity ([2]; No PO4, 200 μM substrate) | IC50 [3] | IC50 [4] | Substrate (% Control) [5] | IC50 [6] | IC50 [7] | % Cured ([8]; 25 mg/kg/day) | MSD (mean survival in days of animals dying of infection) ([8]; 25 mg/kg/day) | Number Cured Total ([8]; 25 mg/kg/day) | % Cured ([8]; 50 mg/kg/day) | MSD (mean survival in days of animals dying of infection) ([8]; 50 mg/kg/day) | Number Cured Total ([8]; 50 mg/kg/day) | % Cured ([8]; 100 mg/kg/day) | MSD (mean survival in days of animals dying of infection) ([8]; 100 mg/kg/day) | Number Cured Total ([8]; 100 mg/kg/day)
1 | Nc1ncnc2c1ncn2[C@@H]1O[C@H](CSCCCO)[C@@H](O)[C@H]1O [HPTA] | 170 µM | 72.5% | 101.8% |  |  |  |  |  |  |  |  |  |  |  |  |  | 
2 | Nc1ncnc2c1ncn2[C@@H]1O[C@H](CSCCCF)[C@@H](O)[C@H]1O [MFPTA, reference compound] | 120 µM | 47.5% | 116.4% | 160 µM | 600 µM | 66 % Control | 600 µM | 25 µM |  |  |  |  |  |  |  |  | 
3 | CSC[C@H]1O[C@@H](n2cnc3c(N)ncnc32)[C@H](O)[C@@H]1O [MTA, 5'-deoxy-5'-methylthioadenosine, reference compound] |  | 100% | 100% | 150 ± 60 µM | 850 ± 120 µM | 100 % Control | 200 ± 45 µM | 11 ± 7 µM | 0% | 5.0 days | 0/5 | 0% | 5.0 days | 0/5 | 0% | 5.0 days | 0/5
4 | N=C(N)c1ccc(OCCCCCOc2ccc(C(=N)N)cc2)cc1 [PENTAMIDINE] | 0.2 µM |  |  |  |  |  |  |  |  |  |  |  |  |  |  |  | 
5 | CCCSC[C@H]1O[C@@H](n2cnc3c(N)ncnc32)[C@H](O)[C@@H]1O [PTA, reference compound] | 46 µM | 57.5% | 96.4% | 160 µM | 1000 µM | 102 % Control | 500 µM | 45 µM |  |  |  |  |  |  |  |  | 
